This experiment has as its system BDF1 mice, P388 leukemia ip, median survival T/C. Description: NCI In Vivo Anticancer Drug Screen. Data for tumor model P388 Leukemia (intraperitoneal) in B6D2F1 (BDF1) mice. The settings on record: endpoint: median survival time, higher = longer survival. The essentials: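 Each value expresses how treatment altered survival: treated-mouse outcome over vehicle-mouse outcome, both groups bearing the transplanted tumour.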

The mark [1] stands for this setting: dose: 100.0 mg/kg/injection, schedule: Q04DX003 (ip), vehicle: saline with Tween-80.
Where [2] appears, read: dose: 200.0 mg/kg/injection, schedule: Q04DX003 (ip), vehicle: saline with Tween-80.
Setting [3] is: dose: 400.0 mg/kg/injection, schedule: Q04DX003 (ip), vehicle: saline with Tween-80.
Setting [4] is: dose: 25.0 mg/kg/injection, schedule: Q01DX009 (ip), vehicle: saline with Tween-80.
[5] abbreviates: dose: 50.0 mg/kg/injection, schedule: Q01DX009 (ip), vehicle: saline with Tween-80.
Setting [6] is: dose: 100.0 mg/kg/injection, schedule: Q01DX009 (ip), vehicle: saline with Tween-80.
Setting [7] is: dose: 200.0 mg/kg/injection, schedule: Q01DX009 (ip), vehicle: saline with Tween-80.
Setting [8] is: dose: 100.0 mg/kg/injection, schedule: Q04DX003 (ip), vehicle: water.
[9] abbreviates: dose: 200.0 mg/kg/injection, schedule: Q04DX003 (ip), vehicle: water.
[10] abbreviates: dose: 400.0 mg/kg/injection, schedule: Q04DX003 (ip), vehicle: water.
The mark [11] stands for this setting: dose: 100.0 mg/kg/injection, schedule: Q01DX009 (ip), vehicle: Klucel (hydroxypropylcellulose) (HPC).
The mark [12] stands for this setting: dose: 100.0 mg/kg/injection, schedule: Q04DX003 (ip), vehicle: Klucel (hydroxypropylcellulose) (HPC).
Setting [13] is: dose: 200.0 mg/kg/injection, schedule: Q01DX009 (ip), vehicle: Klucel (hydroxypropylcellulose) (HPC).
The mark [14] stands for this setting: dose: 200.0 mg/kg/injection, schedule: Q04DX003 (ip), vehicle: Klucel (hydroxypropylcellulose) (HPC).
Where [15] appears, read: dose: 400.0 mg/kg/injection, schedule: Q01DX009 (ip), vehicle: Klucel (hydroxypropylcellulose) (HPC).
Setting [16] is: dose: 400.0 mg/kg/injection, schedule: Q04DX003 (ip), vehicle: Klucel (hydroxypropylcellulose) (HPC).

Experimental findings from PubChem BioAssay AID328 (DTP/NCI, 2004) are described below.

Structures are written as SMILES. Several values for one entry are separate records, joined by “and”; a condition that tells them apart may be missing. Equal entries are not always repeated. Inconclusive results and toxic doses are left out.

`c1ccc(OCC2CO2)c(OCC2CO2)c1` (stereo not drawn): the T/C (dose: 60.0 mg/kg/injection, schedule: Q01DX005 (ip), vehicle: saline with Tween-80) was 157 % of control; the T/C (dose: 120.0 mg/kg/injection, schedule: Q01DX005 (ip), vehicle: saline with Tween-80) is 185 % of control; the T/C (dose: 240.0 mg/kg/injection, schedule: Q01DX005 (ip), vehicle: saline with Tween-80) was 171 % of control.
`CCOCc1cccc2ccccc12`: the T/C is 109 % of control under setting [1], 100 % of control under setting [2] and 118 % of control under setting [3].
As for `Cc1[o+]c(C)c2c(c1C)-c1ccccc1C2=O`, the T/C runs as follows: (dose: 6.25 mg/kg/injection, schedule: Q01DX009 (ip), vehicle: saline with Tween-80) 104 % of control; (dose: 12.5 mg/kg/injection, schedule: Q01DX009 (ip), vehicle: saline with Tween-80) 113 % of control; under setting [4], 98 % of control; (dose: 25.0 mg/kg/injection, schedule: Q04DX003 (ip), vehicle: saline with Tween-80) 109 % of control; under setting [5], 106 % of control; under setting [6], 120 % of control. Further, the T/C is, setting by setting: under setting [1], 100 % of control; under setting [7], 104 % of control; under setting [2], 116 % of control.
Consider `CCC(=O)O[C@H]1CC[C@H]2[C@@H]3CCC4=CC(=O)CC[C@]4(C)[C@H]3CC[C@]12C`, for which the T/C runs as follows: (dose: 100.0 mg/kg/injection, schedule: Q01DX009 (sc), vehicle: steriod suspending solution) 104 % of control; (dose: 100.0 mg/kg/injection, schedule: Q04DX003 (sc), vehicle: steriod suspending solution) 105 % of control; (dose: 200.0 mg/kg/injection, schedule: Q01DX009 (sc), vehicle: steriod suspending solution) 87 % of control; (dose: 200.0 mg/kg/injection, schedule: Q04DX003 (sc), vehicle: steriod suspending solution) 100 % of control; (dose: 400.0 mg/kg/injection, schedule: Q01DX009 (sc), vehicle: steriod suspending solution) 91 % of control; (dose: 400.0 mg/kg/injection, schedule: Q04DX003 (sc), vehicle: steriod suspending solution) 100 % of control.
Turning to `O=S(=O)(O)c1ccc(/C2=c3\cc/c([n-]3)=C(\c3ccc(S(=O)(=O)O)cc3)c3ccc([n-]3)/C(c3ccc(S(=O)(=O)O)cc3)=c3/cc/c([n-]3)=C(\c3ccc(S(=O)(=O)O)cc3)c3ccc2[n-]3)cc1.[Zn]`, the T/C (dose: 62.5 mg/kg/injection, schedule: Q01DX009 (ip), vehicle: saline with Tween-80) is 106 % of control.
As to `O=c1[nH]nc(NCCCO)c2ccccc12`, the T/C by setting is: under setting [5], 112 % of control; under setting [6], 87 % of control; under setting [7], 96 % of control.
Take `COc1ccc(C2=CC(c3ccc4c(c3)OCO4)c3c(c4ccccc4oc3=O)O2)cc1OC` (stereo not drawn): the T/C was 96 % of control (dose: 12.5 mg/kg/injection, schedule: Q01DX009 (ip), vehicle: water); 106 % of control (dose: 25.0 mg/kg/injection, schedule: Q01DX009 (ip), vehicle: water); 102 % of control (dose: 50.0 mg/kg/injection, schedule: Q01DX009 (ip), vehicle: water); 101 % of control (dose: 50.0 mg/kg/injection, schedule: Q04DX003 (ip), vehicle: water); 93 % of control (dose: 100.0 mg/kg/injection, schedule: Q01DX009 (ip), vehicle: water); 110 % of control under setting [8]. The T/C under setting [9] was 94 % of control and the T/C under setting [10] was 94 % of control.
Regarding `[Cl][Pt+2][Cl].[NH-]C1CCC1.[NH-]C1CCC1`, the T/C (dose: 12.5 mg/kg/injection, schedule: Q01DX009 (ip), vehicle: Klucel (hydroxypropylcellulose) (HPC)) was 173 % of control and 201 % of control; the T/C (dose: 25.0 mg/kg/injection, schedule: Q01DX009 (ip), vehicle: Klucel (hydroxypropylcellulose) (HPC)) was 195 % of control and 213 % of control; the T/C (dose: 50.0 mg/kg/injection, schedule: Q01DX009 (ip), vehicle: Klucel (hydroxypropylcellulose) (HPC)) is 94 % of control and 115 % of control.
As for `O=C(NC(Cc1ccccc1)C(=O)CCl)OCc1ccccc1` (stereo not drawn), the T/C is, setting by setting: (dose: 4.4 mg/kg/injection, schedule: Q01DX009 (ip), vehicle: saline with Tween-80) 112 % of control; (dose: 6.6 mg/kg/injection, schedule: Q01DX009 (ip), vehicle: saline with Tween-80) 120 % of control; (dose: 15.0 mg/kg/injection, schedule: Q01DX009 (ip), vehicle: saline with Tween-80) 112 % of control; under setting [4], 105 % of control and 113 % of control; (dose: 37.5 mg/kg/injection, schedule: Q01DX009 (ip), vehicle: saline with Tween-80) 86 % of control.
On to `Cc1ccc(NC(=S)NCCc2ccccn2)cc1C`, for which the T/C runs as follows: under setting [5], 101 % of control and 124 % of control; under setting [6], 100 % of control and 102 % of control; under setting [7], 104 % of control and 106 % of control; (dose: 400.0 mg/kg/injection, schedule: Q01DX009 (ip), vehicle: saline with Tween-80) 100 % of control.
For the compound `NC(Cc1c[nH]c2cc(N(CCCl)CCCl)ccc12)C(=O)O` (stereo not drawn), the T/C was 115 % of control (dose: 0.75 mg/kg/injection, schedule: Q01DX009 (sc), vehicle: olive oil, sesame oil, peanut oil); 123 % of control (dose: 1.5 mg/kg/injection, schedule: Q01DX009 (sc), vehicle: olive oil, sesame oil, peanut oil); 113 % of control (dose: 1.5 mg/kg/injection, schedule: Q04DX003 (sc), vehicle: olive oil, sesame oil, peanut oil); 100 % of control (dose: 3.0 mg/kg/injection, schedule: Q01DX009 (sc), vehicle: olive oil, sesame oil, peanut oil); 177 % of control (dose: 3.0 mg/kg/injection, schedule: Q04DX003 (sc), vehicle: olive oil, sesame oil, peanut oil); 162 % of control (dose: 4.5 mg/kg/injection, schedule: Q04DX003 (sc), vehicle: olive oil, sesame oil, peanut oil). The T/C (dose: 6.0 mg/kg/injection, schedule: Q04DX003 (sc), vehicle: olive oil, sesame oil, peanut oil) is 154 % of control.
Take `CCOc1ccc2nc(/C=C\c3cc4c5c(c3)CCCN5CCC4)ccc2c1`: the T/C reads like this: under setting [11], 90 % of control; under setting [12], 100 % of control; under setting [13], 109 % of control; under setting [14], 100 % of control; under setting [15], 104 % of control; under setting [16], 95 % of control.
For the compound `O=C(CNC(c1ccccc1)(c1ccccc1)c1ccccc1)OC(c1ccccc1)c1ccccc1`, the T/C under setting [1] is 104 % of control, the T/C under setting [2] was 104 % of control and the T/C under setting [3] is 100 % of control.
`Cc1ccc(S(=O)(=O)OC2CS(=O)(=O)C2)cc1`: the T/C is, setting by setting: under setting [4], 102 % of control; under setting [5], 100 % of control; under setting [6], 102 % of control; under setting [7], 102 % of control.
`CCOC1C=CC(OC(C)=O)C(COC(C)=O)O1` (stereo not drawn): the T/C under setting [11] was 90 % of control; the T/C under setting [12] is 100 % of control; the T/C under setting [13] is 86 % of control; the T/C under setting [14] was 104 % of control; the T/C under setting [15] was 100 % of control; the T/C under setting [16] is 100 % of control.
For the compound `CCOC(=O)CCC(NC(=O)c1ccc(N(C=O)CCOC=O)cc1)C(=O)OCC` (stereo not drawn), the T/C runs as follows: (dose: 50.0 mg/kg/injection, schedule: Q04DX003 (ip), vehicle: saline with Tween-80) 105 % of control; under setting [1], 105 % of control; under setting [2], 111 % of control.
As to `C=C1CC(C2CCC(C)(C)C2)OC1=O` (stereo not drawn), the T/C (dose: 25.0 mg/kg/injection, schedule: Q04DX002 (ip), vehicle: saline with Tween-80) was 102 % of control and the T/C (dose: 50.0 mg/kg/injection, schedule: Q04DX002 (ip), vehicle: saline with Tween-80) is 100 % of control.
Consider `O=C(O)c1cc2c3c(c1)CCCN3CCC2`, for which the T/C is, setting by setting: under setting [1], 90 % of control; under setting [2], 100 % of control; under setting [3], 90 % of control.
Regarding `COc1cc2c(cc1OC)C(OC)N(C)c1c-2ccc2cc(OC)c(OC)cc12` (stereo not drawn), the T/C reads like this: under setting [8], 161 % of control; under setting [9], 161 % of control; (dose: 300.0 mg/kg/injection, schedule: Q04DX003 (ip), vehicle: water) 166 % of control; under setting [10], 102 % of control.
